According to US6900194B1, “Use of substituted 4-biarylbutyric and 5-biarylpentanoic acid derivatives as matrix metalloprotease inhibitors for the treatment of respiratory diseases” (Bayer Aktiengesellschaft, priority 1998, dated 2005):

How the values were obtained:
[1] = molecular target: T1, MMP-12 (Macrophage Elastase) (Homo sapiens, UniProt P39900); assay: P218 quenched fluorescence assay, MMP-12; format: biochemical; details: table 3
T1 construct: made in house; host or cells: E. coli BL21 (DE3)
T1 sequence (P39900 106-470): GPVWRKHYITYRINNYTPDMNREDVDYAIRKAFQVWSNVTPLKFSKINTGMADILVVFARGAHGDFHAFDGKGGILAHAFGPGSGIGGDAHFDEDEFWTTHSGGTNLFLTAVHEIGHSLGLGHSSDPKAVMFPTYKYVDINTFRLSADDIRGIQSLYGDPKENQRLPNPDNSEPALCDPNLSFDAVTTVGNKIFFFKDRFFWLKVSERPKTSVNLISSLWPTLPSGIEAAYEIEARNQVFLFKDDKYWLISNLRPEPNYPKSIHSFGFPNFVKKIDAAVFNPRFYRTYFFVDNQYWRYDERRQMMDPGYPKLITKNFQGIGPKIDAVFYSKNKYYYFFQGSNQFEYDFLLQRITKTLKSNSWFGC
Description: P218 Quenched Fluorescence Assay for MMP Inhibition:
This assay is adapted from the one described by Knight et al., FEBS Letters, 296, 263-266 (1992) for MMP-3 and a related substrate. The rate of hydrolysis of the synthetic substrate H-MCA-Pro-Lys-Pro-Leu-Ala-Leu-DPA-Ala-Arg-NH2 (P218) by the respective MMPs is monitored fluorometrically, using an excitation wavelength of 340 nm and an emission wavelength of 395 nm, in the presence or absence of the test compounds. The substrate is made up initially in 100% DMSO to a concentration of 1×10^−2 M, then diluted in assay buffer to a final concentration of 20 μM. Test compounds (10 mM in DMSO) are diluted in assay buffer at an initial concentration of 0.3-1000 nM. These are diluted to a final concentration in the assay from 0.03 nM to 100 nM. The reaction is initiated by the addition of substrate at a final concentration of 20 μM. The total assay volume in a 96 well microtitre plate is 150 μl, Cleavage of the substrate between the Leu-Ala residues allows the fluorescence of the MCA group to be detected on a fluorometer (Cytofluor II) following excitation at 340 nm and emission at 395 nm. Change in fluorescence is continually monitored for a 40 min period.
The Ki's are calculated using the method described by Williams and Morrison, Methods in Enzymology, 63, 437-467 (1979) to measure Ki apparent for tight binding inhibitors, and is summarised as follows: [I]0/(1−vi/v0)=Ki apparent ×vi/v0+[E]0 [I]0 and [E]0 are inhibitor and enzyme concentrations, and vi/v0 are reaction velocities with/without inhibitor. [I]0 is equal to IC50 when vi is half v0, so that: IC50=0.5×[E]0+Ki apparent
IC50's are determined at each enzyme concentration using Xlfit software. Ki apparent is then determined graphically from the plot of IC50 versus MMP concentration, using the intercepts to estimate Ki apparent. Thus, intercept values at IC50=0 and [E]0=0 are equal to −2×Ki apparent and Ki apparent, respectively. IC50 values are calculated using % inhibition values at each enzyme concentration, ensuring data is taken from the linear part of the reaction rate curves. The Ki can then be calculated from the equation: Ki=Ki apparent/[…] where S=substrate concentration and Km=dissociation constant.
The assay conditions are modified as follows for each of the MMPs used:
MMP-12 (Macrophage Elastase)
[…] is isolated according to the following procedure: Human GenePool cDNA libraries from human lung, spleen, and brain were obtained from Invitrogen (Groningen, The Netherlands). HPLC-purified oligonucleotides were purchased from BioTez (Berlin, Germany), E. coli strain DH5α from Life Technologies (Heidelberg, Germany), strain BL21(DE3) from Novagen (Heidelberg, Germany). Pfu DNA-Polymerase and pBlueScriptII-KS(+) were from Stratagene (Heidelberg, Germany). DNA plasmid and DANN gel isolation kits were purchased from Qiagen (Hilden, Germany). All restriction enzymes and DNA modifying enzymes were ordered from New England Biolabs (Schwalbach, Germany). HiTrapQ (5 ml) was from Pharmacia Biotech (Freiburg, Germany). Vydac C4-RP HPLC columns (214TP54: 300 Å, 5 μm, 4.6×250 mm; 214TP1022: 300 Å, 10 μm, 22×250 mm) were from Promochem (Wesel, Germany). Fluorogenic substrate P218 was purchased from Polypeptide Laboratories (Wolfenbüttel, Germany). Ultrapure urea was purchased from Schwarz-Mann (Cleveland, Ohio). Ready-to-use NuPAGE 10% Bis-Tris Polyacrylamide SDS-PAGE gels and NuPAGE 20×MOPS running buffer were obtained from Novex (Frankfurt/Main, Germany) 10% AMPA and all other chemicals were from Sigma (Deisenhofen, Germany). […]

[2] = system: Human alveolar macrophages; details: read-out: IC50, inhibition of MCP-1-induced trafficking of human alveolar macrophages across artificial basement membrane; Matrigel; human MCP-1 5 ng/ml; 48-98 h; + or − lipopolysaccharide
Description: (§1) In vitro Functional Tests • 1. Human alveolar macrophages • Human alveolar macrophages were obtained by bronchoscopy of healthy smoking volunteers. Cells were spun and resuspended at 2×10^6/ml. Trafficking of alveolar macrophages (+or −lipopolysaccharide 2.5 μg.ml) across an artificial basement membrane (Matrigel) was induced by human MCP-1 (5 ng/ml) over a 48-98 h period. […] Murine peritoneal macrophages • Murine macrophages were obtained from mice 5 days after an intraperitoneal injection of thioglycollate. Cells were spun and resuspended at 2×10^6/ml. Trafficking of peritoneal macrophages across an artificial basement membrane (Matrigel) was induced by murine MCP-1 (5 ng/ml) over a 48-98 h period. […] LPS Induced TNFα Production in Mice

[3] = system: Murine peritoneal macrophages; details: read-out: IC50, inhibition of trafficking of murine peritoneal macrophages across artificial basement membrane; Matrigel; murine MCP-1 5 ng/ml; 48-98 h
Description: as §1

Compound | IC50 [1] [nM] | IC50 [2] [nM] | IC50 [3] [nM]
O=C(O)[C@H]1[C@H](CN2C(=O)c3cc4ccccc4cc3C2=O)CC[C@@H]1C(=O)c1ccc(-c2ccc(Cl)cc2)cc1 (racemic) [C-XVIII] | 1 | – | –
O=C(O)[C@H]1[C@H](CN2C(=O)c3cc(Cl)c([N+](=O)[O-])cc3C2=O)CC[C@@H]1C(=O)c1ccc(-c2ccc(Cl)cc2)cc1 (racemic) [C-XXX] | 4.5 | – | –
O=C(c1ccc(-c2ccc(Cl)cc2)cc1)C1CCC(CN2C(=O)c3ccccc3C2=O)C1C(=O)O (stereo not drawn) [(1α,2β,5β)-2-{[4′-chloro(1,1′-biphenyl)-4-yl]carbonyl}-5-[(1,3-dihydro-1,3-dioxo-2H-isoindol-2-yl)methyl]-cyclopentane carboxylic acid] | – | ≤ 1000 | ≤ 1000
CCCCCOc1ccc(-c2ccc(C(=O)CC(CCN3C(=O)c4ccccc4C3=O)C(=O)O)cc2)cc1 (stereo not shown) [C-III] | 2.8 | – | –
CCCOc1ccc2c(c1)C(=O)N(CCC(CC(=O)c1ccc(-c3ccc(Cl)cc3)cc1)C(=O)O)C2=O (stereo not shown) [C-V] | 1.7 | – | –
O=C(CC(CCN1C(=O)c2ccccc2C1=O)C(=O)O)c1ccc(-c2ccc(OCc3ccccc3)cc2)cc1 (stereo not shown) [C-XXII] | 1.6 | – | –
